Source: patent US7183430B2, “Compounds which can block the response to chemical substances or thermal stimuli or mediators of inflammation of nociceptors, production method thereof and compositions containing same” (Diverdrugs, S.L., priority 2002, dated 2007)

Experiments:
[1] = acute inflammatory pain model caused by subcutaneous capsaicin (paw lick latency); assay type: in vivo; conditions: mice, intraperitoneal; for behavioral latency time (paw lick): carrier 20±5 s
Experimental: The analgesic activity of the products was determined by assessing their effect in the acute inflammatory pain model caused by subcutaneous administration of the capsaicin irritant. Administration of this vanilloid causes a neurogenic inflammation in animals with acute painful burning sensation resulting in thermal and mechanical hyperalgesia. The behavioral latency time to paw lick after intraperitoneal administration of the compounds to mice at different doses was monitored.

[2] = 52° C. hot plate nociception test; assay type: in vivo; conditions: mice, 10 mg/Kg intraperitoneal, carrier 11.5±2 s
Experimental: A 52° C. hot plate test was used as a nociception test, where the latency time to paw withdrawal or jump of the animal was monitored. The compounds were intraperitoneally administered to mice at a dose of 10 mg/Kg. The behavioral test was carried out at 30, 60 and 120 minutes after the administration of the compounds.

[3] = tested on: primary trigeminal neuronal cultures; test: entrance of calcium cation stimulated by capsaicin in neuronal cultures; assay type: cell-based
[4] = tested on: afferent nerve fibers from the knee of the rat; test: nervous activity caused by capsaicin in afferent nerve fibers from the knee

N=C(N)NCCC[C@H](N)C(=O)N(CCc1ccc(Cl)cc1Cl)CC(=O)N(CCc1ccc(Cl)cc1Cl)CC(N)=O [Example 1]
behavioral latency time (paw lick) ([1]; 2 mg/Kg): 90 ± 10 s | behavioral latency time (paw lick) ([1]; 5 mg/Kg): 190 ± 50 s | behavioral latency time (paw lick) ([1]; 10 mg/Kg): 250 ± 40 s | duration of the behavioral response ([1]; 2 to 10 mg/Kg): decreased as the dose of the compound increased | latency to the first response (paw withdrawal or jump) ([2]; 30 minutes after): 20 ± 4 s | latency to the first response (paw withdrawal or jump) ([2]; 60 minutes after): 18 ± 3 s | latency to the first response (paw withdrawal or jump) ([2]; 120 minutes after): 18 ± 4 s | inhibition of the entrance of calcium cation stimulated by capsaicin [3]: 85% | block of the nervous activity caused by capsaicin [4]: 80%
